Entries after “also recorded” stand apart in the source; their conditions may differ. Like-named read-outs stand apart in the source and are kept apart here.
Columns and labels:
[1] = test system: OSM-induced pSTAT3 in T47D human breast cancer cells; assay: pSTAT3 ELISA in T47D cells treated with OSM ± SMI; assay type: cell-based; conditions: for IC50: Homo sapiens
Procedure: To test the effect of SMIs in vitro, each SMI was incubated with OSM for a period of 1 h at 37 °C, and T47D and MDA-MB-231 human breast cancer cell lines were subsequently treated with OSM (10 ng/mL) and/or SMI-10 (10 μM) analogs for 30 min and measured for pSTAT3 levels via ELISA. The results of these assays are presented graphically in Figure and, for T47D cells, in Table as a percentage of reduction from +OSM alone. For phospho-STAT3 (pSTAT3) ELISAs, T47D MDA-MB-231, and MCF-7 cells were seeded in 12- or 24-well plates at 70–75% confluency and allowed to adhere overnight, after which cells were serum-starved with serum-free RPMI-1640 for 4 h. SMIs (10 μM in DMSO or serially diluted to specified concentrations from a 100 mM stock in DMSO) and human recombinant OSM (10 ng/mL; PeproTech; #300–10T-10UG) were incubated in serum-free RPMI-1640 medium for 1 h. After incubation, the SMI-10 analogs or SMI-10B13 and OSM were added to the serum-starved cells for 30 min. Immediately afterward, the cells were lysed using 1x PathScan Sandwich ELISA Lysis Buffer (Cell Signaling Technology; #7018S), collected, and stored at −20 °C. Lysates were analyzed for pSTAT3 levels using either the PathScan Phospho-STAT3 (Tyr705) Sandwich ELISA Antibody Pair kit (Cell Signaling Technology; #7146) or Human/Mouse Phospho-STAT3 (Y705) DuoSet IC ELISA (R&D Systems; DYC4607B), according to manufacture’s protocol. pSTAT3 expression was measured with absorbance at 450 nm and quantified by comparison relative to OSM-induced pSTAT3 levels. To calculate an IC50 for SMI-10B13, a standard curve was generated as described in the DuoSet IC ELISA datasheet to determine the concentration of pSTAT3.

[2] = test system: OSM-mediated signaling (pSTAT3, pAKT, pJNK, pERK) in T47D cells; assay: Immunoblot of OSM-mediated signaling in T47D cells; assay type: cell-based, human; conditions: SMI 10 μM, OSM 10 ng/mL, 30 min
Procedure: For immunoblot analysis, T47D breast cancer cells were treated and collected in the same manner as described above for the ELISA preparation. After lysate collection, samples were run on a 10% SDS-PAGE gel and transferred to a nitrocellulose membrane via semidry transfer. Blots were rinsed with DI H2O and allowed to completely dry at room temperature before blocking with LiCor Intercept PBS Blocking Buffer (LiCor, Lincoln, NE; Cat# 927-90001) for 1 h. After blocking, primary antibodies (1:1000) suspended in blocking buffer supplemented with 0.1% Tween were added, shaken at room temperature for 1 h, and stored at 4 °C overnight. Membranes were then washed 6 times for 5 minutes each with 1X PBS supplemented with 0.5% Tween while shaking at room temperature, and secondary antibodies (1:15,000) were applied and incubated for 1 h. Afterward, membranes were washed as previously described above and imaged at 700 nm using the LiCor Odyssey CLx Imaging System. Quantification of immunoblots was performed using the LiCor Image Studio software, normalizing to β-Actin, and calculating relative fold change compared to nontreated samples. Antibodies used included phospho-STAT3 (Y705) (Cell Signaling Technology, Danvers, MA; cat. no. 9145), phospho-AKT (S473) (Cell Signaling Technology, Danvers, MA; cat. no. 4060), phospho-JNK ([…]/[…]) (Cell Signaling Technology, Danvers, MA; cat. no. 4668), phospho-ERK (T202/Y204) (Cell Signaling Technology, Danvers, MA; cat. no. 9101), β-Actin (Cell Signaling Technology; cat. no. 3700), and donkey antirabbit IRDye 800CW (LiCor, Lincoln, NE; Cat# 925-32213).

15N OSM = molecular target: T1, 15N OSM (Homo sapiens, UniProt P13725); assay: 1H,15N HSQC NMR chemical shift perturbation titration; assay type: binding; conditions: 100 μM 15N OSM; residues Asp87, Gln90, Arg91, Leu92 at or near site III
T1 construct: ^15N-isotope-labeled OSM^1-187 protein was titrated individually with each of the SMIs; made in house
T1 sequence (P13725 26-212): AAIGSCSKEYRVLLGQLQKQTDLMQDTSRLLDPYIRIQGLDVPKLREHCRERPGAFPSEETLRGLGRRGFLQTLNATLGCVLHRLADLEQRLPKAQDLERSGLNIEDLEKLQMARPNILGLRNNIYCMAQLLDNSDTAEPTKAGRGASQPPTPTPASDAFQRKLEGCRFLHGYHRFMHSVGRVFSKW
Procedure: Protein was prepared and chemical shift perturbation (CSP) experiments were conducted as previously described by Mass et al. For SMI inhibitor titration studies, in a 5 mm NMR tube, 600 μL of a 100 μM sample of ^15N OSM in NMR buffer (50 mM sodium phosphate (pH 6.6), 100 mM sodium chloride, and 5% D2O) was titrated with a 20 mM stock solution of SMI in d6-dimethyl sulfoxide. The SMI stock solutions were added in 0.75–4 μL increments to a final concentration of 260 μM (SMI-10B) or 200 μM (SMI-10B13) and final volumes of 636 μL (SMI-10B) and 614.25 μL (SMI-10B13). Titration points for SMI-10B were: 0, 20, 40, 60, 80, 100, 140, 180, 220, and 260 μM. Titration points for SMI-10B13 were: 0, 0.5, 1.0, 6.0, 10, 20, 30, 40, 50, 60, and 200 μM.

[3] = test system: T47D and MCF-7 human breast cancer cells; assay: MTS cell viability assay; assay type: cell-based; conditions: T47D and MCF-7; 100 μM to 0.1 nM, 24 h
Procedure: Cell viability was assessed using the CellTiter 96 AQueous One Solution Cell Proliferation Assay (Promega, cat. no. G3580), following the manufacturer’s instructions. Briefly, T47D and MCF-7 human breast cancer cells were seeded in 96-well plates at a density of 10,000 cells/well in 100 μL of complete growth medium and allowed to adhere overnight. Cells were then treated with a serial dilution (100 μM to 0.1 nM) of SMI-10B, SMI-10B13, Temozolomide (positive control), or vehicle (DMSO) for 24 h. Following treatment, 20 μL of MTS reagent was added directly to each well, and plates were incubated at 37 °C in a humidified incubator with 5% CO2 and imaged after 1 h of incubation. Absorbance was measured at 490 nm by using a microplate reader. Cell viability was expressed as a percentage relative to the vehicle-treated controls, and experiments were performed in triplicate.

[4] = T47D, SMI 10 μM + OSM 10 ng/mL, 30 min, ELISA, relative to +OSM, no-treatment blank subtracted

SMILES	IC50 ([1]; Figure S3 graph A (T47D by order), four parameter nonlinear regression, given as negative log value, read-out: LogIC50 (graph A) (converted)) [µM]	IC50 ([1]; T47D cells, ELISA, read-out: IC50 for inhibition of STAT3 phosphorylation) [µM]	Relative pSTAT3 Levels (Table 2, SMI-10B analogs) [1, 4] [%]	Relative pSTAT3 Levels (Table 2, SMI-10B analogs) ([1]; T47D, SMI 10 μM + OSM 10 ng/mL, 30 min, ELISA, relative to +OSM, no-treatment blank subtracted, listed as 10B13) [%]	Inhibition of OSM-mediated signaling cascades by immunoblot (words) [2]	Chemical shift perturbation of 15N OSM on titration (15N OSM)	Cytotoxicity / cell viability via MTS assay [3]	Relative pSTAT3 Levels (Table 1, SMI-10A-10J) [1, 4] [%]	Inhibition of OSM-induced pSTAT3 via ELISA ([1]; T47D, SMI 10 μM, OSM 10 ng/mL, 30 min)	Inhibition of OSM-mediated signaling cascades by immunoblot (words) ([2]; listed as 10B)
O=C(O)/C=C/c1cc(-c2ccc3cc[nH]c3c2)c(-c2ccc3cc[nH]c3c2)o1 [SMI-10B13, (E)-3-(4,5-di(1H-Indol-6-yl)furan-2-yl)acrylic Acid]	0.136	0.136	32.7	32.73	most effective; also recorded: better at inhibiting pSTAT3, pAKT, pJNK, and pERK signaling	binding to the same site as SMI-10B with a higher affinity	Minimal toxicity; also recorded: minimal to no cytotoxicity at high concentrations	–	–	–
O=C(O)/C=C/c1cc(-c2ccc3c(c2)OCO3)c(-c2ccc3c(c2)OCO3)o1 [SMI-10B, (E)-3-(4,5-Bis(benzo[d][1,3]dioxol-5-yl)furan-2-yl)acrylic acid]	–	–	30.14	–	significant reductions, near nontreated levels	clear shifts in the fast exchange regime	Minimal toxicity; also recorded: minimal to no cytotoxicity at high concentrations	12.8	capable of inhibiting OSM-induced pSTAT3	capable of inhibiting multiple cascades
